According to patent US9212204B2, “Treatment of rett syndrome using glycyl-L-2-methylprolyl-L-glutamic acid” (priority 2011, dated 2015):
Non-standard residues stand in square brackets, D forms with d. Residues, ends and D or L forms follow the SMILES beside them. αMeP = C[C@@]1(C(=O)O)CCCN1

Experiments:
[1] = tested on: GFAP-positive reactive astrocytes; assay: GFAP staining, astrocytosis in aged brains; type: in vivo, rat; settings: i.p.; 18-month old rats; 3 d after injection; vs vehicle p<0.05, particularly 0.12 and 12 mg/kg
Method: To carry out these studies, tissues were fixed and embedded in paraffin and sections obtained using standard methods. Coronal sections (6 μm) containing the level of the hippocampus were cut and mounted on chrome-alum-coated slides for staining. The sections were deparaffinized in xylene, dehydrated in a series of ethanol and incubated in 0.1 M phosphate buffered saline (PBS).
Primary antibodies against glial fibrillary acidic protein (GFAP) and proliferating cell nuclear antigen (PCNA) were used to mark reactive glial cells and cells undergoing apoptosis and proliferation, respectively. […]
Control sections were processed in the same way except the primary antibody was omitted from the incubation solution. The number of PCNA positive cells was counted in the subventricular zone and the GFAP positive cells was scored in the cerebral cortex.
Using GFAP as a marker for reactive astrocytes, the number of GFAP-positive cells was counted in the CA4 sub-region of the hippocampus of aged rats treated with G-2MeP or vehicle. […]
We also evaluated effects of G-2-MePE on astrocytosis in the CA4 sub-region of the hippocampus in aged rats. […]
GFAP-positive cells were counted using a computerised program (Discovery 1). G-2-MePE was administered intra-peritoneally and the numbers of GFAP-positive cells were assessed 3d after the injection. […]

[2] = tested on: slices of hippocampus from MeCP2 deficient mice; assay: Hippocampal long-term potentiation in MeCP2 deficient mice; type: in vivo, mouse; settings: 20 mg/kg/day i.p. from week 4 to week 9; vs saline
From the text: MeCP2 deficient mice have been previously reported to suffer from functional and ultrastructural synaptic dysfunction, significant impairment of hippocampus-dependent memory and hippocampal long-term potentiation (LTP) (Moretti et al. The Journal of Neuroscience. 2006. 26(1):319-327). To test the effects of the G-2-MePE treatment on synaptic function in the RTT model we compared hippocampal LTP in both vehicle and G-2-MePE treated animals at 9 weeks of age. To do so, we measured the slope of the fEPSP as a % of baseline potential in neurons in slices of hippocampus from MeCP2 deficient mice treated with either saline or G-2-MePE (FIG. 23).

[3] = tested on: animals with penetrating ballistic injury; settings: pTBI; cited from earlier work
MeCP2-/y mice = assay: Life span of MeCP2-/y mice (Example 10); type: in vivo, mouse; settings: 20 mg/kg i.p. daily; compared to MeCP2 KO littermates
Method: For the survival measurements, the nocturnal activity analysis and the immunoblot analysis, G-2-MePE (synthesised Albany Molecular Research Inc. (Albany, N.Y.) and supplied by Neuren Pharmaceuticals Limited) is administered daily via intra-peritoneal injections (20 mg/kg, vehicle=saline, 0.01% BSA). The treatment starts at PI 5 and is maintained throughout the course of the experiments. For intracellular physiology experiments, the mice are injected daily with G-2-MePE (20 mg/kg body weight, vehicle=saline, 0.01% BSA) for 2 weeks, from P15 to P28-P32 when they are used for acute slice preparation. For optical imaging experiments, mice are injected with G-2-MePE (20 mg/kg body weight, vehicle=saline, 0.01% BSA) daily from the day of the lid suture to the day of imaging.
To test whether G-2-MePE treatment will impact the development of cardinal features of the RTT disease, 2 week old mutant animals are given daily intra-peritoneal injections for the course of their lifespan. Measurements of synaptic physiology, synaptic molecular composition, and cortical plasticity are then acquired as detailed below, along with health-related measurements such as heart rate, locomotor activity levels, and lifespan.

[4] = tested on: Tbx1 heterozygous, Cntnap2 knockout, Slc9a6 knockout and fmr1 knockout mice; assay: Genetic mouse models of ASD and Fragile X Syndrome; type: in vivo; settings: 20 mg/kg/day i.p.
Method: Effects of G-2-MePE are further tested in the following genetic models of ASD: the Tbx1 heterozygous mouse, the Cntnap2 knockout mouse and the Sic9a6 knockout mouse. G-2-MePE is also tested in the fmr1 knockout mouse model of Fragile X Syndrome.
Animals in each of the above models are generated in accordance with the methodology described in the cited literature. Wild type equivalents are also obtained for each genetic model. Animals in each model are divided into three groups (n=10 to n=20): placebo treated wild type mice, mutant G-2-MePE-treated group and mutant placebo-treated control group.
The treatments are administered intraperitoneally: placebo (saline) or 20 mg/kg/day of G-2-MePE.

C[C@@]1(C(=O)N[C@@H](CCC(=O)O)C(=O)O)CCCN1C(=O)CN [Example G-2-MePE, Glycyl-L-2-methylprolyl-L-glutamic acid] (H-Gly-[αMeP]-Glu-OH)
number of reactive astrocytes (GFAP) in the CA4 region of the hippocampus [1]: reduced
slope of fEPSP (hippocampal LTP) [2]: increased
neuroinflammation [3]: inhibits
increase in life expectancy (0.5 probability survival rate) (MeCP2-/y mice): ~50%
measures associated with the ASD phenotype [4]: significantly improves
